Source: patent publication US20180230160A1, “2-AMINO-7A-PHENYL-3,4,4A,5,7,7A-HEXAHYDROFURO[3,4-B]PYRIDINES AS BACE1 INHIBITORS” (H. Lundbeck A/S, priority 2015, published 2018)
Like-named read-outs stand apart in the source and are kept apart here.

Tests used:
[1] = Compound exposure in rat brain and plasma after oral dosing (DMPK analysis); format: in vivo; conditions: male, Sprague Dawley, 3 hours post dose; for concentration at 3 h: read-out: Exp (exposure); for Kp at 3 h: brain/plasma, read-out: Brain/Plasma ratio
Protocol: (§1) Young adult Male Sprague Dawley rats of approximately 250 g weight were purchased from Charles River and received 0-30 mg/kg of vehicle (10% HP betaCD+1M MeSO4, pH 2.5) or test compounds (dissolved in vehicle) only by oral gavage (p.o). The compounds are dosed at a volume of 5 ml/kg. Cohorts of 5-10 animals were established for each treatment condition.
(§2) At T=180 minutes after initial dosing the animals were stunned and decapitated with a guillotine. Trunk-blood was sampled in EDTA coated tubes after decapitation of the animal. The blood was centrifuged at 2200G at 4° C. for 15 minutes and the plasma was collected and frozen at −80° C. The blood was aliquoted for Aβ ELISA and DMPK analysis. Immediately following sacrifice, the brain was extracted and split into 2 halves. The right hemibrains were snap frozen on dry ice and stored at −80° C. The left half was dissected; with the front forebrain taken for Aβ ELISA and the remainder used for DMPK analysis. These samples were also snap frozen on dry ice and stored at −80° C. until use for analysis.
The results of the administration of representative Compounds of Examples 1, 2, 5, […], of brain and plasma samples collected at 3 hours post dose and then following exposures, as described above, are tabulated below.

Aβ40 peptide = assay: Assessment of Aβ peptide levels in rat brain and plasma following BACE1 inhibition (Aβ40 ELISA); format: in vivo; conditions: 3 hours post dose, vs vehicle
Protocol: Assessment of Aβ Peptide Levels in Rat Brain and Plasma Following BACE1 Inhibition. Animals.
as §1, §2
The cortex samples were thawed slightly on wet ice before they were homogenized with a small volume dispersing instrument (T10 basic ULTRA-TURRAX®) which was set at speed 5 for approximately 5-7 sec. The tissue was processed in a 10 times volume of the weight, for example 100 mg of tissue was homogenized in 1000 μL of Homogenization buffer. Homogenization buffer: 50 ml Milli Q water+50 nM NaCl+0.2% Diethylamin (DEA)+1 tablet of Complete Protease inhibitor cocktail+1 nM 4-(2-aminoethyl) benzenesulfonyl fluoride hydrochloride irreversible serine protease inhibitor (AEBSF).
After homogenization 450 μL aliquots of the samples are collected into a 1.5 ml Eppendorf tube and placed on wet ice, 0.5% NP-40 (50 ul) was added to all samples and then they were incubated on ice for 30 min. After which all samples were sonicated using an Ultrasonic homogenizer with 20 kHz homogeneous sound (SONOPLUS HD2070, Bandelin Electronic) 10 pulse set at 12-13% power to extract all the Aβ species. The samples were then centrifuged (Ole Dich 157 MPRF Micro centrifuge) at 20000G for 20 minutes at 4° C. After centrifugation 285 μL of the supernatant was pipetted into 600 μL microtubes tubes and neutralized with 15 μL of 1M Tris-HCL buffer.
WAKO 294-62501 Human/Rat Abeta amyloid (40) kit was used for all ELISA analyses. 30 μL plasma samples or 30 μL of the cortex supernatants generated as described above were placed in 600 μL microtubes tubes on wet ice. To this 30 μL of 8M urea (AppliChem A1049, 9025) was added to generate a 2-fold dilution. Both plasma and cortex supernatants were incubated on ice for 30 min. Standard rows were prepared from the standard peptide stock provided in the kit and standard diluent containing 1.6M urea (200 μL 8M urea+800 μL of standard diluent) and 0.8M urea (400 μL 8M Urea+3600 μL Standard diluent). A serial 2-fold dilution of Aβ40 from 100 pmol/ml to 0 pmol/L was prepared for the assay.
After incubation with urea, all samples were further diluted by addition of 5 times standard diluent from the Kit. This was done by adding 240 μL Standard Diluent to 60 μL sample/urea mixture, which was then mixed well. 100 μL of each diluted sample was pipetted into designated wells of the ELISA plate in duplicates. The plate was then covered and incubated overnight at 4° C. The following day, the ELISA kit was brought to room temperature before use. The incubated plate was washed 5 times with the 20× washing solution diluted in Milli Q water. 100 μL HRP-conjugate was applied to each well, and the plate was covered and incubates at 4° C. for 1 hr. The wash was repeated again for 5 times. 100 μL 3,3′,5,5′-Tetramethylbenzidine (TMB) solution was applied to each well and the plate was covered and incubated in the dark at room temperature for 30 minutes. […]

human BACE1 = human BACE1 (Homo sapiens, UniProt P56817); assay: BACE1 binding assay (SPA-based radioligand binding); set-up: biotin (biotinylated form); made in house; host or cells: Freestyle HEK293 cells; conditions: pH 4.5, 10 nM radioligand, Ki=IC50/(1+L/Kd)
Protocol: The binding assay was performed as SPA-based assay using a biotinylated form of human BACE1 recombinantly expressed and subsequently purified from Freestyle HEK293 cells. The binding assay was run in a 50 mM sodium acetate buffer, pH 4.5 containing 50 mM NaCl and 0.03% Tween-20 in white clear bottom 384 plates (Corning #3653). 10 nM (final concentration) radioligand ([^3H]—N-((1S,2R)-1-benzyl-3-cyclopropylamino-2-hydroxy-propyl)-5-(methanesulfonyl-methyl-amino)-N—((R)-1-phenyl-ethyl)-isophthalamide) (TRQ11569 purchased from GE Healthcare) was mixed with test compound at a given concentration, 6 nM (final concentration) human BACE1 and 25 μg Streptavidin coated PVT core SPA beads (RPNQ0007, GE Healthcare Life Sciences) in a total volume of 40 μl. Several concentrations of each test compound were tested in the assay for […] determination. The plates were incubated for one hour at room temperature and counted in a Wallac Trilux counter. Total and non-specific binding were determined using buffer and 1 μM (final concentration) of the high affinity BACE1 reference inhibitor (S)-6-[3-chloro-5-(5-prop-1-ynyl-pyridin-3-yl)-thiophen-2-yl]-2-imino-3,6-dimethyl-tetrahydro-pyrimidin-4-one, respectively. For each test compound, a 1050 value (the concentration mediating 50% inhibition of the specific binding of the radioligand) was determined from concentration-response curve and used to calculate the Ki from the equation Ki=IC50/(1+L/Kd), where L and Kd are the final concentration of the radioligand used in the assay and the dissociation constant of the radioligand, respectively. The Kd of the radioligand was determined from saturation binding experiments.

P-gp (MDR1) = assay: MDCK-MDR1 assay (permeability, efflux ratio); format: in vitro ADME; conditions: dog, Papp BA/Papp AB, 60-minute incubation
Protocol: The permeability of the test compounds was assessed in MDCK-MDR1 cells that were cultured to confluency (4-6 days) in a 96 transwell plate. Test compounds were diluted with the transport buffer (HBSS+1% BSA) to a concentration of 0.5 μM and applied to the apical or basolateral side of the cell monolayer. Permeation of the test compounds from A to B direction or B to A direction was determined in triplicate over a 60-minute incubation time at 37° C. and 5% CO2 with a relative humidity of 95%. Test compounds were quantified by LC-MS/MS analysis based on the peaks area ratios of analyte/IS in both the receiver and donor wells of the transwell plate. The apparent permeability coefficient Papp (cm/s) was calculated using the equation: […]
Where dCr/dt is the cumulative concentration of compound in the receiver chamber as a function of time (μM/s); Vr is the solution volume in the receiver chamber (0.05 mL on the apical side; 0.25 mL on the basolateral side); A is the surface area for the transport, i.e. 0.0804 cm^2 for the area of the monolayer; CO is the initial concentration in the donor chamber (μM).

Chain of human BACE1 (P56817 46-501): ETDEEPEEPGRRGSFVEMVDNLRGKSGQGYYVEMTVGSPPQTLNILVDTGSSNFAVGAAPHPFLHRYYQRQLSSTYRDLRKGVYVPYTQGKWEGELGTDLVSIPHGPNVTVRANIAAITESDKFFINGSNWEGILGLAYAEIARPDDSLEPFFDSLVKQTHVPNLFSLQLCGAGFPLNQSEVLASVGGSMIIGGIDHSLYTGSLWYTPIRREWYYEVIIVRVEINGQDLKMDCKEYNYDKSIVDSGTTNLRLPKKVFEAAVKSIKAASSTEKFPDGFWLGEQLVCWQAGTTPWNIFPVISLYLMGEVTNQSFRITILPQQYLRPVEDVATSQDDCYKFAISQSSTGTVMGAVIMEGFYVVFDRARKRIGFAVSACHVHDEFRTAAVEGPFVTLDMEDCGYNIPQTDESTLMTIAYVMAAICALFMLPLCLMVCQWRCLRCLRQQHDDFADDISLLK

Row | Ki (human BACE1) | efflux ratio at 60 min, 0.5 μM (P-gp (MDR1)) | Structure (SMILES) | other results
1 | – | – | [2H]C([2H])([2H])Oc1ccc(C(=O)Nc2ccc(F)c([C@]34COC[C@@]3(F)C[C@](C)(F)C(N)=N4)c2)nc1 [Example 1, N-(3-((3S,4aR,7aS)-2-amino-3,4a-difluoro-3-methyl-3,4,4a,5-tetrahydrofuro[3,4-b]pyridin-7a-yl)-4-fluorophenyl)-5-(methoxy-d3)picolinamide] | concentration at 3 h ([1]; Brain, 10 mg/kg p.o.): 194 ng/g; concentration at 3 h ([1]; Brain, 30 mg/kg p.o.): 951 ng/g; concentration at 3 h ([1]; Plasma, 10 mg/kg p.o.): 184 ng/g; concentration at 3 h ([1]; Plasma, 30 mg/kg p.o.): 634 ng/g; Kp at 3 h ([1]; 10 mg/kg p.o.): 1.06; Kp at 3 h ([1]; 30 mg/kg p.o.): 1.5; Aβ40 reduction (Aβ40 peptide; Brain, 10 mg/kg p.o.): 34%; Aβ40 reduction (Aβ40 peptide; Brain, 30 mg/kg p.o.): 54%; Aβ40 reduction (Aβ40 peptide; Plasma, 10 mg/kg p.o.): 38%; Aβ40 reduction (Aβ40 peptide; Plasma, 30 mg/kg p.o.): 52%
2 | 48 nM | 0.96 | C[C@]1(F)C[C@]2(F)COC[C@]2(c2cc(NC(=O)c3cnc(C(F)F)cn3)ccc2F)N=C1N [Example 3, N-(3-((3S,4aR,7aS)-2-amino-3,4a-difluoro-3-methyl-3,4,4a,5,7,7a-hexahydrofuro[3,4-b]pyridin-7a-yl)-4-fluorophenyl)-5-(difluoromethyl)pyrazine-2-carboxamide] | –
3 | 6.4 nM | 1.01 | C[C@]1(F)C[C@]2(F)COC[C@]2(c2cc(NC(=O)c3ccc(Cl)cn3)ccc2F)N=C1N [Example 6, N-(3-((3S,4aR,7aS)-2-amino-3,4a-difluoro-3-methyl-3,4,4a,5,7,7a-hexahydrofuro[3,4-b]pyridin-7a-yl)-4-fluorophenyl)-5-chloropicolinamide] | –
4 | 14 nM | 1.23 | C[C@@]1(F)C[C@]2(F)COC[C@]2(c2cc(NC(=O)c3cnc(C(F)F)cn3)ccc2F)N=C1N [Example 8, N-(3-((3R,4aR,7aS)-2-amino-3,4a-difluoro-3-methyl-3,4,4a,5,7,7a-hexahydrofuro[3,4-b]pyridin-7a-yl)-4-fluorophenyl)-5-(difluoromethyl)pyrazine-2-carboxamide] | –
5 | 23 nM | 1.33 | Cc1csc(C(=O)Nc2ccc(F)c([C@]34COC[C@@]3(F)C[C@@](C)(F)C(N)=N4)c2)n1 [Example 9, N-(3-((3R,4aR,7aS)-2-amino-3,4a-difluoro-3-methyl-3,4,4a,5,7,7a-hexahydrofuro[3,4-b]pyridin-7a-yl)-4-fluorophenyl)-4-methylthiazole-2-carboxamide] | –
6 | 22 nM | 2.46 | Cc1nc(C(=O)Nc2ccc(F)c([C@]34COC[C@@]3(F)C[C@@](C)(F)C(N)=N4)c2)co1 [Example 10, N-(3-((3R,4aR,7aS)-2-amino-3,4a-difluoro-3-methyl-3,4,4a,5,7,7a-hexahydrofuro[3,4-b]pyridin-7a-yl)-4-fluorophenyl)-2-methyloxazole-4-carboxamide] | –
7 | 29 nM | – | [2H]C([2H])([2H])Oc1cnc(C(=O)Nc2ccc(F)c([C@]34COC[C@@]3(F)C[C@@](C)(F)C(N)=N4)c2)cn1 [Example 13, N-(3-((3R,4aR,7aS)-2-amino-3,4a-difluoro-3-methyl-3,4,4a,5-tetrahydrofuro[3,4-b]pyridin-7a-yl)-4-fluorophenyl)-5-(methoxy-d3)pyrazine-2-carboxamide] | –
8 | 9.3 nM | 0.91 | C[C@@]1(F)C[C@]2(F)COC[C@]2(c2cc(NC(=O)c3ccc(Cl)cn3)ccc2F)N=C1N [Example 14, N-(3-((3R,4aR,7aS)-2-amino-3,4a-difluoro-3-methyl-3,4,4a,5,7,7a-hexahydrofuro[3,4-b]pyridin-7a-yl)-4-fluorophenyl)-5-chloropicolinamide] | –
9 | 340 nM | – | NC1=N[C@@]2(c3cc(NC(=O)c4ccc(F)cn4)cc(F)c3F)COC[C@H]2C[C@]1(F)CF [Example 19, N-[3-[(3R,4aS,7aS)-2-amino-3-fluoro-3-(fluoromethyl)-4,4a,5,7-tetrahydrofuro[3,4-b]pyridin-7a-yl]-4,5-difluoro-phenyl]-5-fluoro-pyridine-2-carboxamide] | –
10 | 230 nM | – | COc1ccc(C(=O)Nc2cc(F)c(F)c([C@]34COC[C@H]3C[C@@](F)(CF)C(N)=N4)c2)nc1 [Example 25, N-[3-[(3S,4aS,7aS)-2-amino-3-fluoro-3-(fluoromethyl)-4,4a,5,7-tetrahydrofuro[3,4-b]pyridin-7a-yl]-4,5-difluoro-phenyl]-5-methoxy-pyridine-2-carboxamide] | –
